Measurements reported in PubChem BioAssay AID330 (DTP/NCI, 2004).
Where “and” joins values, the source holds several entries; their conditions need not be identical. Identical values can stand only once. Inconclusive results and toxic doses are left out.

Test system: P388 leukemia ip, CD2F1 mice, survival T/C
Assay: NCI In Vivo Anticancer Drug Screen. Data for tumor model P388 Leukemia (intraperitoneal) in CD2F1 (CDF1) mice
Conditions: endpoint: median survival time, higher = longer survival
In short: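 Mice carrying the transplanted tumor received test compound or vehicle. Survival was recorded in each group, and the value is the treated-group measurement divided by that of the vehicle-treated control group.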

[1] = dose: 6.25 mg/kg/injection, schedule: Q01DX009 (ip), vehicle: water
[2] = dose: 12.5 mg/kg/injection, schedule: Q01DX009 (ip), vehicle: water
[3] = dose: 25.0 mg/kg/injection, schedule: Q01DX009 (ip), vehicle: water
[4] = dose: 50.0 mg/kg/injection, schedule: Q01DX009 (ip), vehicle: water
[5] = dose: 100.0 mg/kg/injection, schedule: Q01DX009 (ip), vehicle: water
[6] = dose: 100.0 mg/kg/injection, schedule: Q01DX001 (ip), vehicle: saline with Tween-80
[7] = dose: 200.0 mg/kg/injection, schedule: Q01DX001 (ip), vehicle: saline with Tween-80
[8] = dose: 400.0 mg/kg/injection, schedule: Q01DX001 (ip), vehicle: saline with Tween-80
[9] = dose: 50.0 mg/kg/injection, schedule: Q01DX009 (ip), vehicle: saline with Tween-80
[10] = dose: 100.0 mg/kg/injection, schedule: Q01DX009 (ip), vehicle: saline with Tween-80

Question: For NCC(=O)OCN1C(=O)C2C3C=CC(C2C1=O)C1C2C(=O)N(COC(=O)CN)C(=O)C2C31 (centres undefined), which T/C [1] is on record?
Answer: Its T/C is 109 % of control.

Question: What about the T/C [2] of the same compound?
Answer: Its T/C is 104 % of control.

Question: What about the T/C [3] of the same compound?
Answer: The T/C was 104 % of control and 109 % of control.

Question: What about the T/C (dose: 25.75 mg/kg/injection, schedule: Q01DX009 (ip), vehicle: water) of the same compound?
Answer: The T/C was 112 % of control.

Question: And the T/C [4]?
Answer: Its T/C is 99 % of control and 115 % of control and 116 % of control.

Question: What about the T/C (dose: 51.5 mg/kg/injection, schedule: Q01DX009 (ip), vehicle: water) of the same compound?
Answer: Its T/C is 121 % of control.

Question: And the T/C [5]?
Answer: The T/C was 118 % of control.

Question: What about the T/C (dose: 103.0 mg/kg/injection, schedule: Q01DX009 (ip), vehicle: water) of the same compound?
Answer: Its T/C is 203 % of control.

Question: And the T/C (dose: 200.0 mg/kg/injection, schedule: Q01DX009 (ip), vehicle: water)?
Answer: The T/C was 91 % of control.

Question: What about the T/C (dose: 400.0 mg/kg/injection, schedule: Q01DX009 (ip), vehicle: water) of the same compound?
Answer: The T/C was 173 % of control.

Question: With Nc1nc(=O)cnn1C1OC(CO)C(O)C1O (centres undefined) as the compound, how does the T/C [6] read?
Answer: The T/C was 98 % of control.

Question: And the T/C [7]?
Answer: Its T/C is 97 % of control.

Question: What about the T/C [8] of the same compound?
Answer: Its T/C is 103 % of control.

Question: How did the T/C [9] turn out when c1ccc2c(c1)CC1ON3CCc4ccccc4C3C21 (centres undefined) was run?
Answer: The T/C was 97 % of control.

Question: And the T/C [10]?
Answer: The T/C was 94 % of control.

Question: And the T/C (dose: 200.0 mg/kg/injection, schedule: Q01DX009 (ip), vehicle: saline with Tween-80)?
Answer: The T/C was 92 % of control.

Question: Which T/C (dose: 60.0 mg/kg/injection, schedule: Q01DX005 (ip), vehicle: saline with Tween-80) does the source give for CC1=CC(C)(C)NN1C1=NS(=O)(=O)c2ccccc2N1C here?
Answer: Its T/C is 101 % of control.

Question: What about the T/C (dose: 120.0 mg/kg/injection, schedule: Q01DX005 (ip), vehicle: saline with Tween-80) of the same compound?
Answer: Its T/C is 97 % of control.

Question: And the T/C (dose: 240.0 mg/kg/injection, schedule: Q01DX005 (ip), vehicle: saline with Tween-80)?
Answer: Its T/C is 101 % of control.

Question: How did the T/C [6] turn out when NC(=O)c1ccccc1Sc1ccccc1C(N)=O was run?
Answer: The T/C was 100 % of control.

Question: And the T/C [7]?
Answer: Its T/C is 100 % of control.

Question: And the T/C [8]?
Answer: The T/C was 100 % of control.

Question: Which results are given for C=Cn1c([N+](=O)[O-])cnc1/C=C/c1ccc(C#N)cc1?
Answer: T/C (dose: 100.0 mg/kg/injection, schedule: Q01DX001 (ip), vehicle: Klucel (hydroxypropylcellulose) (HPC)): 94 % of control; T/C (dose: 200.0 mg/kg/injection, schedule: Q01DX001 (ip), vehicle: Klucel (hydroxypropylcellulose) (HPC)): 96 % of control; T/C (dose: 400.0 mg/kg/injection, schedule: Q01DX001 (ip), vehicle: Klucel (hydroxypropylcellulose) (HPC)): 93 % of control

Question: CC(C)C(=O)CCCN1C(=O)c2ccccc2C1=O was tested. Which T/C (dose: 12.5 mg/kg/injection, schedule: Q01DX009 (ip), vehicle: distilled water + Tween-80) did it give?
Answer: The T/C was 94 % of control.

Question: And the T/C (dose: 25.0 mg/kg/injection, schedule: Q01DX009 (ip), vehicle: distilled water + Tween-80)?
Answer: Its T/C is 86 % of control.

Question: And the T/C (dose: 50.0 mg/kg/injection, schedule: Q01DX009 (ip), vehicle: distilled water + Tween-80)?
Answer: The T/C was 86 % of control.

Question: And the T/C (dose: 100.0 mg/kg/injection, schedule: Q01DX009 (ip), vehicle: distilled water + Tween-80)?
Answer: The T/C was 100 % of control.

Question: What does the source list for CC1C(=O)CCC2C1(C)CCC1C2(C)CCC2(C)C3CC(C)(C(=O)O)CCC3(C)CCC12C (centres undefined)?
Answer: T/C (dose: 12.5 mg/kg/injection, schedule: Q01DX005 (ip), vehicle: Klucel (hydroxypropylcellulose) (HPC)): 94 % of control; T/C (dose: 25.0 mg/kg/injection, schedule: Q01DX005 (ip), vehicle: Klucel (hydroxypropylcellulose) (HPC)): 100 % of control; T/C (dose: 50.0 mg/kg/injection, schedule: Q01DX005 (ip), vehicle: Klucel (hydroxypropylcellulose) (HPC)): 88 % of control; T/C (dose: 100.0 mg/kg/injection, schedule: Q01DX005 (ip), vehicle: Klucel (hydroxypropylcellulose) (HPC)): 87 % of control

Question: With COC(=O)[C@@H]1CCCN1C(=O)C(=O)N1CCC[C@H]1C(=O)OC as the compound, how does the T/C [6] read?
Answer: The T/C was 108 % of control.

Question: What about the T/C [7] of the same compound?
Answer: The T/C was 103 % of control.

Question: And the T/C [8]?
Answer: The T/C was 103 % of control.

Question: With CC(=O)Oc1ccc(N2C(=O)C3C(C2=O)C2c4ccccc4C3C3CCCCN32)cc1 (centres undefined) (tested in a mixture with another compound) as the compound, how does the T/C [1] read?
Answer: The T/C was 101 % of control.

Question: What about the T/C [2] of the same compound?
Answer: Its T/C is 111 % of control.

Question: What about the T/C [3] of the same compound?
Answer: Its T/C is 104 % of control.

Question: What about the T/C [4] of the same compound?
Answer: Its T/C is 102 % of control.

Question: What about the T/C [5] of the same compound?
Answer: Its T/C is 104 % of control.

Question: With Cc1nc2ccc(Cl)cn2c1[N+](=O)[O-] as the compound, how does the T/C (dose: 50.0 mg/kg/injection, schedule: Q01DX009 (ip), vehicle: Klucel (hydroxypropylcellulose) (HPC)) read?
Answer: Its T/C is 96 % of control.

Question: And the T/C (dose: 100.0 mg/kg/injection, schedule: Q01DX009 (ip), vehicle: Klucel (hydroxypropylcellulose) (HPC))?
Answer: The T/C was 95 % of control.

Question: And the T/C (dose: 200.0 mg/kg/injection, schedule: Q01DX009 (ip), vehicle: Klucel (hydroxypropylcellulose) (HPC))?
Answer: Its T/C is 96 % of control.

Question: For c1ccc(N=C2c3ccccc3NC2(c2ccccc2)c2ccccc2)cc1, which T/C [9] is on record?
Answer: Its T/C is 101 % of control.

Question: And the T/C [10]?
Answer: Its T/C is 93 % of control.

Question: Which results are given for C(#CC1CO1)CCCC#CC1CO1 (centres undefined)?
Answer: T/C (dose: 12.5 mg/kg/injection, schedule: Q01DX005 (ip), vehicle: saline with Tween-80): 106 % of control; T/C (dose: 25.0 mg/kg/injection, schedule: Q01DX005 (ip), vehicle: saline with Tween-80): 110 % of control; T/C (dose: 50.0 mg/kg/injection, schedule: Q01DX005 (ip), vehicle: saline with Tween-80): 107 % of control and 124 % of control
